In patent publication US10093630B2, “Pyrazole compounds and methods of making and using same” (ABIDE THERAPEUTICS, INC., priority 2014, dated 2018):
pIC50: −log10 of the molar value. Where two headings read alike, the source gives them in different places.

Experiments:
Test in all cases: In vitro competitive activity-based protein profiling (gel-based, FP-Rh or HT-01 probe)
Format in all cases: biochemical
[1] = molecular target: T1, ABHD6 (Mus musculus, UniProt Q8R2Y0); conditions: for inhibition at 1 µM: 1 μM inhibitor, read-out: % Inhibition at 1 μM, C = ABHD6; for inhibition at 10 µM: 10 μM inhibitor, read-out: % Inhibition at 10 μM, C = ABHD6
T1 construct: Proteomes (mouse brain membrane fraction or cell lysates); from tissue; host or cells: mouse brain membrane fraction (or cell lysates, not specified)
T1 sequence (Q8R2Y0 1-336): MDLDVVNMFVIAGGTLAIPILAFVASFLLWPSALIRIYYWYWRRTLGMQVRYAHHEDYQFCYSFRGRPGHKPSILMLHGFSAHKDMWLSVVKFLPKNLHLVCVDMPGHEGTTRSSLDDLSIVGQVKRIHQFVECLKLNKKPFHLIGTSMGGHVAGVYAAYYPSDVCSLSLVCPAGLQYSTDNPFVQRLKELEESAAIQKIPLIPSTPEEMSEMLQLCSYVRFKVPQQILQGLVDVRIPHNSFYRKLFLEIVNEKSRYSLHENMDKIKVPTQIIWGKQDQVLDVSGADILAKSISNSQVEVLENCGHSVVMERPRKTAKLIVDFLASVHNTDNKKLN
Procedure, shortened: (§1)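 Read-out: fluorescent band intensity on SDS-PAGE gels, reporting remaining serine hydrolase activity. Before that, proteome (mouse brain membranes or cell lysates, 1.0 mg/mL) saw a range of inhibitor concentrations for 30 min at 37° C, followed by 30 min probe labelling (FP-Rh or HT-01).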

[2] = molecular target: T2, MAGL (Mus musculus, UniProt O35678); conditions: for inhibition at 1 µM: 1 μM inhibitor; for inhibition at 10 µM: 10 μM inhibitor
T2 construct: Proteomes (mouse brain membrane fraction or cell lysates); from tissue; host or cells: mouse brain membrane fraction (or cell lysates, not specified)
T2 sequence (O35678 1-303): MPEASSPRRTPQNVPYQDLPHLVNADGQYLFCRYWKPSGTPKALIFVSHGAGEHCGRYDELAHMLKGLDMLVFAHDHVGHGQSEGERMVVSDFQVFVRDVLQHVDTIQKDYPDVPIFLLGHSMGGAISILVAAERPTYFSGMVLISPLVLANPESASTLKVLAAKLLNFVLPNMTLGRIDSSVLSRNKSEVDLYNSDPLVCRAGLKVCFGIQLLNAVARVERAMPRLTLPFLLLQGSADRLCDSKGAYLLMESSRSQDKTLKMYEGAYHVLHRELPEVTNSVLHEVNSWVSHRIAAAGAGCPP
Procedure, shortened: as §1

[3] = molecular target: T3, PLA2G7 (Mus musculus, UniProt Q60963); conditions: for inhibition at 1 µM: 1 μM inhibitor, read-out: % Inhibition at 1 μM, D = PLA2G7; for inhibition at 10 µM: 10 μM inhibitor, read-out: % Inhibition at 10 μM, D = PLA2G7; for IC50: mouse brain membrane fraction or cell lysates, 30 min preincubation at 37° C.
T3 construct: Proteomes (mouse brain membrane fraction or cell lysates); from tissue; host or cells: mouse brain membrane fraction (or cell lysates, not specified)
T3 sequence (Q60963 22-440): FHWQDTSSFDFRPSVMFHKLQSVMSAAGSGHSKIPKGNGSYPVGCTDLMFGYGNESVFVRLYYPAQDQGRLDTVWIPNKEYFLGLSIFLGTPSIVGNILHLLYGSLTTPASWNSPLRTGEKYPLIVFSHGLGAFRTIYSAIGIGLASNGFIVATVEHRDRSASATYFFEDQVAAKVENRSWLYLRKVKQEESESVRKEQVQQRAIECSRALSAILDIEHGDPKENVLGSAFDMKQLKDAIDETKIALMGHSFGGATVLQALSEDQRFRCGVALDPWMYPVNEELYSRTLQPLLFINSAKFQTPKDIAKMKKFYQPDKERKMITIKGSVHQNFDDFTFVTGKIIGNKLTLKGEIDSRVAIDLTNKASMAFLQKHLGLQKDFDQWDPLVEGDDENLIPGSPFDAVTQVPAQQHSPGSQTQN
Procedure, shortened: as §1

[4] = molecular target: T4, FAAH (Mus musculus, UniProt O08914); conditions: for inhibition at 1 µM: 1 μM inhibitor, read-out: % Inhibition at 1 μM, B = FAAH; for inhibition at 10 µM: 10 μM inhibitor, read-out: % Inhibition at 10 μM, B = FAAH
T4 construct: Proteomes (mouse brain membrane fraction or cell lysates); from tissue; host or cells: mouse brain membrane fraction (or cell lysates, not specified)
T4 sequence (O08914 1-579): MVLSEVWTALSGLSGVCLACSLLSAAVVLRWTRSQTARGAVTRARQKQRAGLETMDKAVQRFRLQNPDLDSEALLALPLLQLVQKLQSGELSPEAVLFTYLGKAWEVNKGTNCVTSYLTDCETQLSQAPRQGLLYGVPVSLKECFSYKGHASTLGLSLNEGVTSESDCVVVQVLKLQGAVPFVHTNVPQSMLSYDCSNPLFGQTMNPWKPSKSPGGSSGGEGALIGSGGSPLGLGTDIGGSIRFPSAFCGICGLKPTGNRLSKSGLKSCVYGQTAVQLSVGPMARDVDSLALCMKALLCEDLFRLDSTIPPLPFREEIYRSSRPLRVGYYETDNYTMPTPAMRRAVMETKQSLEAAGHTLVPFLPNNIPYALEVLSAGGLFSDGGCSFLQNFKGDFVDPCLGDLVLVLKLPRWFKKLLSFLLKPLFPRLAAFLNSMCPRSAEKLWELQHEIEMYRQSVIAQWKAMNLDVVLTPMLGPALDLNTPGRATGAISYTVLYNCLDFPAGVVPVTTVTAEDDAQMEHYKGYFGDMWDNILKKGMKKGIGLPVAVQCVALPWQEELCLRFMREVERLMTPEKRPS
Procedure, shortened: as §1

Row | SMILES | inhibition at 1 µM [1] [%] | inhibition at 10 µM [1] [%] | inhibition at 1 µM [2] [%] | inhibition at 10 µM [2] [%] | inhibition at 1 µM [3] [%] | inhibition at 10 µM [3] [%] | inhibition at 1 µM [4] [%] | inhibition at 10 µM [4] [%] | pIC50 [1] | pIC50 [2] | IC50 [3] [nM] | pIC50 [4] | IC50 ([1]; mouse brain membrane fraction or cell lysates, 30 min preincubation at 37° C., read-out: Mouse (IC50 value, nM) ABHD6) [nM] | IC50 ([2]; mouse brain membrane fraction or cell lysates, 30 min preincubation at 37° C., read-out: Mouse (IC50 value, nM) MAGL) [nM] | IC50 ([4]; mouse brain membrane fraction or cell lysates, 30 min preincubation at 37° C., read-out: Mouse (IC50 value, nM) FAAH) [nM]
1 | CC(=O)N1CCN(C(=O)n2cc(Cl)cn2)CC1 [Example 183, 1-(4-(4-Chloro-1H-pyrazole-1-carbonyl)piperazin-1-yl)ethanone] | < 25 | < 25 | < 25 | < 25 | < 25 | > 75 | < 25 | < 25 | – | – | – | – | – | – | –
2 | CS(=O)(=O)N1CCN(C(=O)n2cc(Cl)cn2)CC1 [Example 184, (4-Chloro-1H-pyrazol-1-yl)(4-(methylsulfonyl)piperazin-1-yl)methanone] | > 75 | > 75 | < 25 | < 25 | > 75 | > 75 | < 25 | 25 to 75 | – | – | – | – | – | – | –
3 | CN1CCN(C(=O)n2cc(Cl)cn2)CC1 [Example 185, (4-Chloro-1H-pyrazol-1-yl)(4-methylpiperazin-1-yl)methanone] | > 75 | > 75 | < 25 | 25 to 75 | < 25 | > 75 | < 25 | > 75 | – | – | – | – | – | – | –
4 | O=C(N1CCN(Cc2ccccc2)CC1)n1cc(Cl)cn1 [Example 186, (4-Benzylpiperazin-1-yl)(4-chloro-1H-pyrazol-1-yl)methanone] | > 75 | > 75 | > 75 | > 75 | < 25 | > 75 | > 75 | > 75 | > 7.00 | > 7.00 | > 1000 | 6.00 to 7.00 | – | – | –
5 | O=C(c1ccccc1)N1CCN(C(=O)n2cc(Cl)cn2)CC1 [Example 187, (4-Benzoylpiperazin-1-yl)(4-chloro-1H-pyrazol-1-yl)methanone] | < 25 | 25 to 75 | 25 to 75 | > 75 | > 75 | > 75 | < 25 | > 75 | – | – | – | – | – | – | –
6 | CS(=O)(=O)N1CCCN(C(=O)n2cc(Cl)cn2)CC1 [Example 189, (4-Chloro-1H-pyrazol-1-yl)(4-(methylsulfonyl)-1,4-diazepan-1-yl)methanone] | > 75 | > 75 | < 25 | 25 to 75 | < 25 | < 25 | > 75 | > 75 | – | – | – | – | – | – | –
7 | O=C(N1CCCN(Cc2ccccc2)CC1)n1cc(Cl)cn1 [Example 191, (4-Benzyl-1,4-diazepan-1-yl)(4-chloro-1H-pyrazol-1-yl)methanone] | 25 to 75 | > 75 | < 25 | > 75 | < 25 | < 25 | > 75 | > 75 | – | – | – | – | – | – | –
8 | O=C(c1ccccc1)N1CCCN(C(=O)n2cc(Cl)cn2)CC1 [Example 192, (4-Benzoyl-1,4-diazepan-1-yl)(4-chloro-1H-pyrazol-1-yl)methanone] | 25 to 75 | > 75 | 25 to 75 | > 75 | < 25 | > 75 | < 25 | > 75 | – | – | – | – | – | – | –
9 | CC(=O)N(C)CCN(C)C(=O)n1cc(Cl)cn1 [Example 193, 4-Chloro-N-methyl-N-(2-(N-methylacetamido)ethyl)-1H-pyrazole-1-carboxamide] | – | < 25 | – | < 25 | – | < 25 | – | < 25 | – | – | – | – | – | – | –
10 | CN(CCN(C)C(=O)n1cc(Cl)cn1)C(=O)c1ccccc1 [Example 194, 4-Chloro-N-methyl-N-(2-(N-methylbenzamido)ethyl)-1H-pyrazole-1-carboxamide] | < 25 | < 25 | < 25 | 25 to 75 | < 25 | < 25 | 25 to 75 | > 75 | – | – | – | – | – | – | –
11 | CN(CCN(C)S(C)(=O)=O)C(=O)n1cc(C(F)(F)F)cn1 [Example 195, N-Methyl-N-(2-(N-methylmethylsulfonamido)ethyl)-4-(trifluoromethyl)-1H-pyrazole-1-carboxamide] | < 25 | > 75 | < 25 | < 25 | < 25 | 25 to 75 | < 25 | > 75 | – | – | – | – | – | – | –
12 | CN(CCN(C)S(C)(=O)=O)C(=O)n1cc(C#N)cn1 [Example 197, 4-Cyano-N-methyl-N-(2-(N-methylmethylsulfonamido)ethyl)-1H-pyrazole-1-carboxamide] | < 25 | 25 to 75 | < 25 | < 25 | < 25 | – | 25 to 75 | > 75 | – | – | – | – | – | – | –
13 | CN(CCN(C)S(C)(=O)=O)C(=O)n1cc(Cl)cn1 [Example 198, 4-Chloro-N-methyl-N-(2-(N-methylmethylsulfonamido)ethyl)-1H-pyrazole-1-carboxamide] | – | < 25 | – | < 25 | – | < 25 | – | < 25 | – | – | – | – | – | – | –
14 | O=C(N1CCCC1)n1cc(C(F)(F)F)cn1 [Example 199, Pyrrolidin-1-yl(4-(trifluoromethyl)-1H-pyrazol-1-yl)methanone] | 25 to 75 | > 75 | < 25 | > 75 | 25 to 75 | > 75 | > 75 | > 75 | – | – | – | – | – | – | –
15 | O=C(N1CCCCC1)n1cc(C(F)(F)F)cn1 [Example 200, Piperidin-1-yl(4-(trifluoromethyl)-1H-pyrazol-1-yl)methanone] | > 75 | > 75 | > 75 | > 75 | > 75 | > 75 | > 75 | > 75 | – | – | 100 to 1000 | – | 100 to 1000 | > 1000 | 100 to 1000
